The values that follow come from US20240218023A1, “CYCLIC PEPTIDE-N-ACETYLGALACTOSAMINE (GALNAC) CONJUGATES FOR DRUG DELIVERY TO LIVER CELLS” (MICROBIO (SHANGHAI) CO., LTD., priority 2021, published 2024).

The test system of assay [1] is HepG2 cells. Briefly: Cellular uptake / binding of FAM-labeled ligands to HepG2 cells (flow cytometry, proportion of FAM positive cells). The format is cell-based, human. To be noted: for Efficiency (%) of cellular uptake (percentage of ligand-bound HepG2 cells): 24 h. The protocol: The human hepatocellular carcinoma (HepG2) cell line was purchased from Shanghai Zhong Qiao Xin Zhou Biotechnology Co., Ltd. and maintained in minimum essential medium (Gibco, ThermoFisher Scientific, USA) with 10% fetal bovine serum (Gibco, ThermoFisher Scientific, USA), 200 units/mL penicillin plus 200 units/mL streptomycin at 37° C. with 5% CO2.
Cells were seeded in 24-well plates with a density of 1.5×10^5 cells per well and incubated under 37° C., 5% CO2. After 18 h of incubation, media were replaced to MEM with 2% FBS and FAM-labeled ligands were added with final concentrations of 1.6, 8, 40 or 200 nM. After 24 h of incubation, cells were washed twice with 1×PBS and analyzed by LSRFortessa (BD Biosciences, NJ, USA). The binding efficiency was evaluated by the proportion of FAM positive cells.
HepG2 cell was treated by 14 cyclic peptide-tri-GalNAc ligand variants with serial diluted concentration of 1.6, 8, 40 or 200 nM. Commercialized tri-GalNAc used in Givosirna was used as positive control and cyclic peptide w/o tri-GalNAc was negative control. […] Equilibrium dissociation constant (kd) for 5-FAM-CPMB-0013 (ID013), 5-FAM-CPMB-0023 (ID023), 5-FAM-CPMB-0035 (ID035) and commercialized tri-GalNAC were 7.0, 8.6, 5.7 and 18 nM, respectively.

Assay [2] has as its target asialoglycoprotein receptor (ASGPR) on HepG2 cells (human) (UniProt P07306). Briefly: flow cytometry, % FAM-positive HepG2 cells after 24 h with 8 nM ligand. (A flow cytometer gives signals particle by particle.)
For assay [3] the target is unchanged. Briefly: flow cytometry, % FAM-positive HepG2 cells after 24 h with 40 nM ligand.
Assay [4] has the same target. Briefly: flow cytometry, % FAM-positive HepG2 cells after 24 h with 1.6 nM ligand.
Assay [5] shares this target. Briefly: flow cytometry, % FAM-positive HepG2 cells after 24 h with 200 nM ligand.

Square brackets hold non-standard residues; d marks the D form. Side chains are listed from the residue outwards. * marks the point of attachment. Gal‑1 = GalNAc linker: 5-(GalNAc-oxy)pentanoic acid (3-acetamido-4,5-diacetoxy-6-(acetoxymethyl)tetrahydropyran-2-yl-oxy)pentanoic acid; Gal‑3 = GalNAc linker: 4-(GalNAc-oxy)butanoic acid (3-acetamido-4,5-diacetoxy-6-(acetoxymethyl)tetrahydropyran-2-yl-oxy)butanoic acid; 5FAM = O=C1OC2(c3ccc(O)cc3Oc3cc(O)ccc32)c2ccc(C(=O)*)cc21; Linker2 = 6-aminohexyl amide linker; GalNAc = N-acetylgalactosamine

Chain of asialoglycoprotein receptor (ASGPR) on HepG2 cells (human) (P07306 whole entry, chain 1 of 2): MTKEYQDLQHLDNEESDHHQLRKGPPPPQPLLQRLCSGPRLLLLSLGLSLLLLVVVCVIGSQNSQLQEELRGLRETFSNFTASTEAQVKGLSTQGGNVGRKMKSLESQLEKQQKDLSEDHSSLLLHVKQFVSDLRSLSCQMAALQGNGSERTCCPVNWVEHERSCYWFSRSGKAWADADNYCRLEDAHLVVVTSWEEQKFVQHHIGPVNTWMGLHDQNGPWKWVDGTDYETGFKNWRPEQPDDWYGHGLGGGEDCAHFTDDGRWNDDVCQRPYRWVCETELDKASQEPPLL
Chain of asialoglycoprotein receptor (ASGPR) on HepG2 cells (human) (P07307 whole entry, chain 2 of 2, further chain): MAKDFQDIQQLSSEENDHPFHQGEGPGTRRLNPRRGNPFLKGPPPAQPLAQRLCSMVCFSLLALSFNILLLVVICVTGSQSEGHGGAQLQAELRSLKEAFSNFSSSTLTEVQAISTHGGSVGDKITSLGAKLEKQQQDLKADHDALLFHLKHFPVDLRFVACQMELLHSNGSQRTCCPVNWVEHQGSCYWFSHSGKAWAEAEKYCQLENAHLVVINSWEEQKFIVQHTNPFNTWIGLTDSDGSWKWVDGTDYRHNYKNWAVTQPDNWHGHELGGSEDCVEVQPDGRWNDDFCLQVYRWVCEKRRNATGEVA

For the molecule “5-FAM-CPMB-0011: CPS-001 cyclic peptide scaffold, Gal-1 GalNAc linker, 5-FAM label; FIG. 14A (KEKGKG; cyclised or stapled)”, the “Efficiency (%) of cellular uptake (percentage of ligand-bound HepG2 cells)” value in assay [1] (1.6 nM ligand, HepG2) is 3.0%; in assay [1] (8 nM ligand, HepG2) it was 20.1%; in assay [1] (40 nM ligand, HepG2), 67.7%; in assay [1] (200 nM ligand, HepG2) it was 94.2%.

As to “5-FAM-CPMB-0012: CPS-001 cyclic peptide scaffold, Gal-2 GalNAc linker, 5-FAM label; FIG. 14B (KEKGKG; not fully specified; cyclised or stapled)”, the “Efficiency (%) of cellular uptake (percentage of ligand-bound HepG2 cells)” value amounted to 1.2% in assay [1] (1.6 nM ligand, HepG2); 19.6% in assay [1] (8 nM ligand, HepG2); 74.2% in assay [1] (40 nM ligand, HepG2); 95.9% in assay [1] (200 nM ligand, HepG2).

Turning to “5-FAM-CPMB-0014: CPS-001 cyclic peptide scaffold, Gal-4 GalNAc linker, 5-FAM label; FIG. 14D (KEKGKG; cyclised or stapled)”, the “Efficiency (%) of cellular uptake (percentage of ligand-bound HepG2 cells)” value in assay [1] (1.6 nM ligand, HepG2) is recorded as 2.3%; in assay [1] (8 nM ligand, HepG2) it was 24.4%; in assay [1] (40 nM ligand, HepG2), 71.0%; in assay [1] (200 nM ligand, HepG2), 96.5%.

On to “5-FAM-CPMB-0015: CPS-001 cyclic peptide scaffold, Gal-5 GalNAc linker, 5-FAM label; FIG. 14E (KEKGKG; cyclised or stapled)”, for which the “Efficiency (%) of cellular uptake (percentage of ligand-bound HepG2 cells)” value in assay [1] (1.6 nM ligand, HepG2) was determined as 16.3%; in assay [1] (8 nM ligand, HepG2), 36.3%; in assay [1] (40 nM ligand, HepG2), 89.6%; in assay [1] (200 nM ligand, HepG2) it was 99%.

Regarding “5-FAM-CPMB-0021: CPS-002 cyclic peptide scaffold, Gal-1 GalNAc linker, 5-FAM label; FIG. 14F (KEKGKG; D-residues; cyclised or stapled)”, the “Efficiency (%) of cellular uptake (percentage of ligand-bound HepG2 cells)” value in assay [1] (1.6 nM ligand, HepG2) was 6.8%; in assay [1] (8 nM ligand, HepG2), 46.1%; in assay [1] (40 nM ligand, HepG2) it was 88.7%; in assay [1] (200 nM ligand, HepG2), 98.8%.

Turning to “5-FAM-CPMB-0025: CPS-002 cyclic peptide scaffold, Gal-5 GalNAc linker, 5-FAM label; FIG. 14H (KEKGKG; D-residues; cyclised or stapled)”, the “Efficiency (%) of cellular uptake (percentage of ligand-bound HepG2 cells)” value in assay [1] (1.6 nM ligand, HepG2) was determined as 1.6%; in assay [1] (8 nM ligand, HepG2), 30%; in assay [1] (40 nM ligand, HepG2), 83.1%; in assay [1] (200 nM ligand, HepG2), 98.2%.

In the case of “5-FAM-CPMB-0031-Ac: negative control, cyclic peptide w/o tri-GalNAc; CPS-003, Gal-1; FIG. 14R (KEKGKG; D-residues; cyclised or stapled) [reference compound]”, the “Efficiency (%) of cellular uptake (percentage of ligand-bound HepG2 cells)” value is given as 0.1% in assay [1] (1.6 nM ligand, HepG2); 0.1% in assay [1] (8 nM ligand, HepG2); 0.2% in assay [1] (40 nM ligand, HepG2); 0.4% in assay [1] (200 nM ligand, HepG2).

Take “5-FAM-CPMB-0031: CPS-003 cyclic peptide scaffold, Gal-1 GalNAc linker, 5-FAM label; FIG. 14I (KEKGKG; D-residues; cyclised or stapled)”: the “Efficiency (%) of cellular uptake (percentage of ligand-bound HepG2 cells)” value worked out at 6.0% in assay [1] (1.6 nM ligand, HepG2); 44.2% in assay [1] (8 nM ligand, HepG2); 87.8% in assay [1] (40 nM ligand, HepG2); 98.6% in assay [1] (200 nM ligand, HepG2).

Regarding “5-FAM-CPMB-0033: CPS-003 cyclic peptide scaffold, Gal-3 GalNAc linker, 5-FAM label; FIG. 14J (KEKGKG; D-residues; cyclised or stapled)”, the “Efficiency (%) of cellular uptake (percentage of ligand-bound HepG2 cells)” value in assay [1] (1.6 nM ligand, HepG2) was 5.3%; in assay [1] (8 nM ligand, HepG2) it was 34.5%; in assay [1] (40 nM ligand, HepG2), 82.9%; in assay [1] (200 nM ligand, HepG2) it was 98.2%.

“5-FAM-CPMB-0034: CPS-003 cyclic peptide scaffold, Gal-4 GalNAc linker, 5-FAM label; FIG. 14K (KEKGKG; D-residues; cyclised or stapled)”: the “Efficiency (%) of cellular uptake (percentage of ligand-bound HepG2 cells)” value was found to be 2.0% in assay [1] (1.6 nM ligand, HepG2); 25.6% in assay [1] (8 nM ligand, HepG2); 73.6% in assay [1] (40 nM ligand, HepG2); 95.6% in assay [1] (200 nM ligand, HepG2).

In general, Kd refers to the constant that tells how readily two partners part at equilibrium. In the case of “5-FAM-CPMB-0035: CPS-003 cyclic peptide scaffold, Gal-5 GalNAc linker, 5-FAM label; FIG. 14L (KEKGKG; D-residues; cyclised or stapled)”, the “Efficiency (%) of cellular uptake (percentage of ligand-bound HepG2 cells)” value in assay [1] (1.6 nM ligand, HepG2) is given as 11.1%; in assay [1] (8 nM ligand, HepG2) it was 63.2%; in assay [1] (40 nM ligand, HepG2), 95.2%; in assay [1] (200 nM ligand, HepG2) it was 99.5%. Moreover, the Kd in assay [1] (HepG2 cells, read-out: Equilibrium dissociation constant (kd)) stood at 5.7 nM. In addition, the “binding ability as compared to others and commercialized tri-GalNAc” value in assay [1] (among 14 variants, HepG2) is listed as “relatively higher binding ability”.

“5-FAM-CPMB-0311: CPS-031 cyclic peptide scaffold, Gal-1 GalNAc linker, 5-FAM label; FIG. 14M (KEKAKA; cyclised or stapled)”: the “Efficiency (%) of cellular uptake (percentage of ligand-bound HepG2 cells)” value in assay [1] (1.6 nM ligand, HepG2) worked out at 3.1%; in assay [1] (8 nM ligand, HepG2) it was 20.8%; in assay [1] (40 nM ligand, HepG2), 68.8%; in assay [1] (200 nM ligand, HepG2) it was 93.3%.

On to “5-FAM-CPMB-0313: CPS-031 cyclic peptide scaffold, Gal-3 GalNAc linker, 5-FAM label; FIG. 14N (KEKAKA; cyclised or stapled)”, for which the “Efficiency (%) of cellular uptake (percentage of ligand-bound HepG2 cells)” value in assay [1] (1.6 nM ligand, HepG2) was determined as 3.0%; in assay [1] (8 nM ligand, HepG2), 24.6%; in assay [1] (40 nM ligand, HepG2) it was 73.2%; in assay [1] (200 nM ligand, HepG2) it was 95.1%.

B1: 5-FAM-CPMB-0025 (peptide)
peptide: KEKGKG
modifications: head-to-tail cyclic; D-Lys at the three Lys positions and D-Glu; each D-Lys side chain carries GalNAc via linker Gal-5; D-Glu side chain carries Linker2 with 5-FAM
As to B1, the Efficiency (%) (proportion of FAM positive cells) in assay [2] came out at 30%; in assay [3], 83.1%; in assay [4], 1.6%; in assay [5], 98.2%.

In the case of cyclo(K([Gal‑1-GalNAc])[dE]([Linker2-5FAM])K([Gal‑1-GalNAc])GK([Gal‑1-GalNAc])G) [5-FAM-CPMB-0031], the Efficiency (%) (proportion of FAM positive cells) was determined as 44.2% in assay [2], 87.8% in assay [3], 6% in assay [4] and 98.6% in assay [5].

B2: 5-FAM-CPMB-0034 (peptide)
peptide: KEKGKG
modifications: head-to-tail cyclic; D-Glu; each Lys side chain carries GalNAc via linker Gal-4; D-Glu side chain carries Linker2 with 5-FAM
Take B2: the Efficiency (%) (proportion of FAM positive cells) in assay [2] worked out at 25.6%; in assay [3], 73.6%; in assay [4], 2%; in assay [5], 95.6%.

With cyclo([dK]([Gal‑1-GalNAc])[dE]([Linker2-5FAM])[dK]([Gal‑1-GalNAc])G[dK]([Gal‑1-GalNAc])G) [5-FAM-CPMB-0021], the Efficiency (%) (proportion of FAM positive cells) in assay [2] came out at 46.1%; in assay [3], 88.7%; in assay [4] it was 6.8%; in assay [5], 98.8%.

Consider cyclo(K([Gal‑3-GalNAc])[dE]([Linker2-5FAM])K([Gal‑3-GalNAc])GK([Gal‑3-GalNAc])G) [5-FAM-CPMB-0033], for which the Efficiency (%) (proportion of FAM positive cells) in assay [2] was 34.5%; in assay [3] it was 82.9%; in assay [4] it was 5.3%; in assay [5], 98.2%.
